Results as given in patent US20240217922A1, “MODULATORS OF SORTILIN ACTIVITY” (Insusense ApS, priority 2021, published 2024).

Biological target: hSortilin (Homo sapiens (Human), UniProt Q99523)
Experiment: Neurotensin scintillation proximity assay, [125I]-neurotensin
Conditions: displacement of [125I]-neurotensin binding to 6his-Sortilin; average of at least 2 determinations; read-out: IC50 [125I]Neurotensin SPA

Chain of hSortilin (Q99523 78-831): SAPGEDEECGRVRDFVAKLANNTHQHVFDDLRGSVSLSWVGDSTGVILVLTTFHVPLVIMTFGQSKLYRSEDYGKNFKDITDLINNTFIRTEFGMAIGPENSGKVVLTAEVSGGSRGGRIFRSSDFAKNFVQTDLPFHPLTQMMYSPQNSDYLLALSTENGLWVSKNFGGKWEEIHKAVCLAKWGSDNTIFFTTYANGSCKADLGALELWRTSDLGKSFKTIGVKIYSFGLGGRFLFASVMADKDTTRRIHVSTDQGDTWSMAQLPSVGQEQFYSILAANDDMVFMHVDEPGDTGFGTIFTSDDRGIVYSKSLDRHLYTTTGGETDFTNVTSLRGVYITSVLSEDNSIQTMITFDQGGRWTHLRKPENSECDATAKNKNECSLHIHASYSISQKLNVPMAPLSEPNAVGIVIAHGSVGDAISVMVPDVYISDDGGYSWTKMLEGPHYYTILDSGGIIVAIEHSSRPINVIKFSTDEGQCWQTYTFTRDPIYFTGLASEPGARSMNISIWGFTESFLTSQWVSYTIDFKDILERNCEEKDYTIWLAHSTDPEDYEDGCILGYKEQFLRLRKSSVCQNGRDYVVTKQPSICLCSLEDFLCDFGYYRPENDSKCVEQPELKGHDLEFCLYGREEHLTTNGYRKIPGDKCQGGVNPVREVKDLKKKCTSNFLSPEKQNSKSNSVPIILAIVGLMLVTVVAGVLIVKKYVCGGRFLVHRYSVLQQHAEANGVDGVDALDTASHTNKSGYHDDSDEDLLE

IC50: 0.29 µM
Structure (SMILES): CC[C@H](C)[C@H](NC(C)=O)C(=O)N[C@@H](CCC(C)(C)C)C(=O)O [Example 16, (S)-2-((2S,3S)-2-Acetamido-3-methylpentanamido)-5,5-dimethylhexanoic Acid]
